# Source: ChEMBL document CHEMBL1201862, “PubChem BioAssay data set” (2004)
# Active and inactive are the calls of the source.
# Tested on: not listed separately
# Assay: P. falciparum ATP4 D1247Y mutant growth inhibitors, dose response, NITD609-resistant line, SYBR Green, dry powder (AID 1159571);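 note: parasites synchronized at ring stage by sorbitol before testing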
# Type: functional, cell-based
# Settings: not given
row,Compound,AC50
1,CO[C@@H]1CN(C)C(=O)c2ccc(NC(=O)c3nc4ccccc4s3)cc2OC[C@@H](C)N(Cc2ccccc2)C[C@H]1C,1080 nM (active)
2,COc1ccc(S(=O)(=O)N2CCC3(CC2)CN(Cc2ccncc2)[C@H](CO)c2[nH]c4cc(OC)ccc4c23)cc1,2220 nM (active)
3,O=C(Cc1ccccc1)N1CC(=O)N2[C@H](CO)[C@H](c3ccc(C#CCc4ccccc4)cc3)[C@H]2C1,1180 nM (active)
4,O=C(Nc1cccc(F)c1)N1CCCCN2[C@H](CO)[C@H](c3ccc(C#Cc4ccccc4)cc3)[C@@H]2C1,55.7 nM (active)
5,CCCC#Cc1ccc2c(c1)[C@H]1[C@H](CCN1Cc1ccccc1F)[C@@H](CO)N2,2370 nM (active)

# Tested on: not listed separately
# Assay: Luminescence Cell-Based Dose Response HTS to Identify Activators of Luciferase Translation or Activity in H4 […] Cells. [Related pubchem assays: 1829 (Project Summary), 1814 (Primary HTS)]
# Type: functional
# Settings: not given
row,Compound,EC50
1,COCCn1c(C)cc(C(=O)COC(=O)c2ccc3ncsc3c2)c1C,155 nM (active)
2,CC(=O)c1c(C)[nH]c(C(=O)NCCC2=CCCCC2)c1C,< 100 nM (inconclusive)
3,Cc1cc(C(=O)CSc2n[nH]c(N)n2)c(C)n1-c1ccccc1,< 100 nM (active)
4,CC(NC(=O)Nc1ccc2c(c1)OCO2)C1CCCO1 (centres undefined),8120 nM (active)
5,O=C1OC(c2ccccc2)=C/C1=C/N1CCCCC1,129 nM (inconclusive)
6,O=C(/N=C1\SCC(=O)N1c1ccccc1Cl)c1ccccc1,11100 nM (active)

# Tested on: not listed separately
# Assay: Luminescence Cell-Based Dose Confirmation HTS to Identify Activators of 5'UTR Stem-Loop Driven Alpha-Synuclein mRNA Translation in H4 Neuroglioblastoma Cells. [Related pubchem assays: 1829 (Project Summary), 1814 (Primary HTS)]
# Type: functional
# Settings: not given
row,Compound,EC50
1,CC(NC(=O)Nc1ccc2c(c1)OCO2)C1CCCO1 (centres undefined),< 100 nM (active)
2,O=C1OC(c2ccccc2)=C/C1=C/N1CCCCC1,< 100 nM (active)
3,O=C(/N=C1\SCC(=O)N1c1ccccc1Cl)c1ccccc1,< 100 nM (active)

# Tested on: not listed separately
# Assay: P. falciparum Dd2 growth inhibitors, dose response, SYBR Green, dry powder samples (AID 1159566);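 note: potency for growth inhibition with lower SYBR green DNA signal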
# Type: functional, cell-based
# Settings: not given
row,Compound,AC50
1,CO[C@@H]1CN(C)C(=O)c2ccc(NC(=O)c3nc4ccccc4s3)cc2OC[C@@H](C)N(Cc2ccccc2)C[C@H]1C,829 nM (active)
2,COc1ccc(S(=O)(=O)N2CCC3(CC2)CN(Cc2ccncc2)[C@H](CO)c2[nH]c4cc(OC)ccc4c23)cc1,1720 nM (active)
3,O=C(Cc1ccccc1)N1CC(=O)N2[C@H](CO)[C@H](c3ccc(C#CCc4ccccc4)cc3)[C@H]2C1,358 nM (active)
4,O=C(Nc1cccc(F)c1)N1CCCCN2[C@H](CO)[C@H](c3ccc(C#Cc4ccccc4)cc3)[C@@H]2C1,43.7 nM (active)
5,CCCC#Cc1ccc2c(c1)[C@H]1[C@H](CCN1Cc1ccccc1F)[C@@H](CO)N2,2390 nM (active)

# Tested on: not listed separately
# Assay: P. falciparum Dd2 growth inhibitors, dose response, SYBR Green, cherry-picked samples (AID 1159567)
# Type: functional, cell-based
# Settings: not given
row,Compound,AC50
1,CO[C@@H]1CN(C)C(=O)c2ccc(NC(=O)c3nc4ccccc4s3)cc2OC[C@@H](C)N(Cc2ccccc2)C[C@H]1C,1120 nM (active)
2,COc1ccc(S(=O)(=O)N2CCC3(CC2)CN(Cc2ccncc2)[C@H](CO)c2[nH]c4cc(OC)ccc4c23)cc1,1890 nM (active)
3,O=C(Cc1ccccc1)N1CC(=O)N2[C@H](CO)[C@H](c3ccc(C#CCc4ccccc4)cc3)[C@H]2C1,918 nM (active)
4,O=C(Nc1cccc(F)c1)N1CCCCN2[C@H](CO)[C@H](c3ccc(C#Cc4ccccc4)cc3)[C@@H]2C1,< 300 nM (active)
5,CCCC#Cc1ccc2c(c1)[C@H]1[C@H](CCN1Cc1ccccc1F)[C@@H](CO)N2,2780 nM (active)

# Tested on: not listed separately
# Assay: P. falciparum 3D7-ScDHODH growth inhibitors, dose response, SYBR Green, dry powder samples (AID 1159570);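 note: parasite growth measured after 72 hours of compound exposure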
# Type: functional, cell-based
# Settings: not given
row,Compound,AC50
1,CO[C@@H]1CN(C)C(=O)c2ccc(NC(=O)c3nc4ccccc4s3)cc2OC[C@@H](C)N(Cc2ccccc2)C[C@H]1C,1750 nM (active)
2,COc1ccc(S(=O)(=O)N2CCC3(CC2)CN(Cc2ccncc2)[C@H](CO)c2[nH]c4cc(OC)ccc4c23)cc1,2140 nM (active)
3,O=C(Cc1ccccc1)N1CC(=O)N2[C@H](CO)[C@H](c3ccc(C#CCc4ccccc4)cc3)[C@H]2C1,1730 nM (active)
4,O=C(Nc1cccc(F)c1)N1CCCCN2[C@H](CO)[C@H](c3ccc(C#Cc4ccccc4)cc3)[C@@H]2C1,38.3 nM (active)
5,CCCC#Cc1ccc2c(c1)[C@H]1[C@H](CCN1Cc1ccccc1F)[C@@H](CO)N2,5850 nM (active)

# Tested on: H4
# Assay: Luminescence Cell-Based Dose Response HTS to Identify Activators of 5'UTR Stem-Loop Driven Prion Protein mRNA Translation in H4 Neuroglioblastoma Cells. [Related pubchem assays: 1829 (Project Summary), 1814 (Primary HTS)]
# Type: functional
# Settings: Homo sapiens
row,Compound,EC50
1,COCCn1c(C)cc(C(=O)COC(=O)c2ccc3ncsc3c2)c1C,132 nM (active)
2,CC(=O)c1c(C)[nH]c(C(=O)NCCC2=CCCCC2)c1C,12300 nM (active)
3,Cc1cc(C(=O)CSc2n[nH]c(N)n2)c(C)n1-c1ccccc1,5580 nM (active)
4,CC(NC(=O)Nc1ccc2c(c1)OCO2)C1CCCO1 (centres undefined),33000 nM (active)
5,O=C1OC(c2ccccc2)=C/C1=C/N1CCCCC1,142 nM (active)
6,O=C(/N=C1\SCC(=O)N1c1ccccc1Cl)c1ccccc1,50500 nM (active)

# Tested on: not listed separately
# Assay: Luminescence Cell-Based Dose Confirmation to Identify Activators of 5'UTR Stem-Loop Driven Alpha-Synuclein mRNA Translation in H4 Neuroglioblastoma Cells. [Related pubchem assays: 1829 (Project Summary), 1814 (Primary HTS)]
# Type: functional
# Settings: not given
row,Compound,EC50
1,COCCn1c(C)cc(C(=O)COC(=O)c2ccc3ncsc3c2)c1C,364 nM (active)
2,CC(=O)c1c(C)[nH]c(C(=O)NCCC2=CCCCC2)c1C,468 nM (active)
3,Cc1cc(C(=O)CSc2n[nH]c(N)n2)c(C)n1-c1ccccc1,6750 nM (active)
4,CC(NC(=O)Nc1ccc2c(c1)OCO2)C1CCCO1 (centres undefined),> 12000 nM (not active)
5,O=C1OC(c2ccccc2)=C/C1=C/N1CCCCC1,306 nM (active)
6,O=C(/N=C1\SCC(=O)N1c1ccccc1Cl)c1ccccc1,717 nM (active)

# Tested on: not listed separately
# Assay: HepG2 cell cytotoxicity, dose response, cytotoxicity control, plate reader, dry powder samples (AID 1159569);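 note: inhibitor potency with signal falling toward the positive control level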
# Type: functional, cell-based
# Settings: not given
row,Compound,AC50
1,CO[C@@H]1CN(C)C(=O)c2ccc(NC(=O)c3nc4ccccc4s3)cc2OC[C@@H](C)N(Cc2ccccc2)C[C@H]1C,> 100000 nM (inactive)
2,COc1ccc(S(=O)(=O)N2CCC3(CC2)CN(Cc2ccncc2)[C@H](CO)c2[nH]c4cc(OC)ccc4c23)cc1,28500 nM (active)
3,O=C(Cc1ccccc1)N1CC(=O)N2[C@H](CO)[C@H](c3ccc(C#CCc4ccccc4)cc3)[C@H]2C1,22500 nM (active)
4,O=C(Nc1cccc(F)c1)N1CCCCN2[C@H](CO)[C@H](c3ccc(C#Cc4ccccc4)cc3)[C@@H]2C1,> 100000 nM (inactive)
5,CCCC#Cc1ccc2c(c1)[C@H]1[C@H](CCN1Cc1ccccc1F)[C@@H](CO)N2,71500 nM (active)

# Tested on: not listed separately
# Assay: P. falciparum Dd2 growth inhibitors, dose response, SYBR Green, dry powder samples, set 9 (AID 1159568)
# Type: functional, cell-based
# Settings: not given
row,Compound,AC50
1,O=C(Cc1ccccc1)N1CC(=O)N2[C@H](CO)[C@H](c3ccc(C#CCc4ccccc4)cc3)[C@H]2C1,354 nM (active)

# Tested on: not listed separately
# Assay: Luminescence Cell-Based Dose Response to Identify Activators of Luciferase Translation or Activity in H4-C Neuroglioblastoma Cells. [Related pubchem assays: 1829 (Project Summary), 1814 (Primary HTS)]
# Type: functional
# Settings: not given
row,Compound,EC50
1,COCCn1c(C)cc(C(=O)COC(=O)c2ccc3ncsc3c2)c1C,343 nM (active)
2,CC(=O)c1c(C)[nH]c(C(=O)NCCC2=CCCCC2)c1C,> 12000 nM (not active)
3,Cc1cc(C(=O)CSc2n[nH]c(N)n2)c(C)n1-c1ccccc1,687 nM (active)
4,CC(NC(=O)Nc1ccc2c(c1)OCO2)C1CCCO1 (centres undefined),> 12000 nM (not active)
5,O=C1OC(c2ccccc2)=C/C1=C/N1CCCCC1,352 nM (active)
6,O=C(/N=C1\SCC(=O)N1c1ccccc1Cl)c1ccccc1,> 12000 nM (not active)

# Tested on: not listed separately
# Assay: Luminescence Cell-Based Dose Response to Identify Activators of 5'UTR Stem-Loop Driven Prion Protein mRNA Translation in H4-C Neuroglioblastoma Cells. [Related pubchem assays: 1829 (Project Summary), 1814 (Primary HTS)]
# Type: functional
# Settings: not given
row,Compound,EC50
1,COCCn1c(C)cc(C(=O)COC(=O)c2ccc3ncsc3c2)c1C,1090 nM (active)
2,CC(=O)c1c(C)[nH]c(C(=O)NCCC2=CCCCC2)c1C,862 nM (active)
3,Cc1cc(C(=O)CSc2n[nH]c(N)n2)c(C)n1-c1ccccc1,1030 nM (active)
4,CC(NC(=O)Nc1ccc2c(c1)OCO2)C1CCCO1 (centres undefined),> 12000 nM (not active)
5,O=C1OC(c2ccccc2)=C/C1=C/N1CCCCC1,426 nM (active)
6,O=C(/N=C1\SCC(=O)N1c1ccccc1Cl)c1ccccc1,1860 nM (active)
